{"source": "patent US9352004B2", "about": "“Muscle-derived cells (MDCs) for treating muscle- or bone-related injury or dysfunction” (University of Pittsburgh—Of the Commonwealth System of …, priority 1998, dated 2016)", "key": {"bladder": {"test_system": "bladder", "conditions": "rat, in vivo", "method": "Micturition Pattern Measurement: Urination pattern profiles were obtained using a specialized metabolic cage which deflects voided urine for collection and quantification over a 24 hour period. Micturition parameters evaluated in the described experiments included total urine output/24 hours, number of micturitions/24 hours and mean volume per micturition (M. D. Chancellor et al., 1994, J. Urol., 151:250-254; T. Watanabe et al., 1996, J. Urol., 156:1507-1510).\nTo first assess the role of intravesicle NO on cyclophosphamide-induced cystitis, female S.D. rats received a single intraperitoneal injection of CYP (100 mg/kg) or vehicle. Voiding parameters (mean voided volume and number of voids) were then monitored for 24 hours in a metabolic cage. Forty-eight hours after CYP injection, bladder function was studied using continuous saline infusion (0.04 ml/min) cystometry via PE-50 transurethral catheter under urethane anesthesia."}, "bladder wall": {"test_system": "bladder wall", "type": "in vivo, rat", "conditions": "100 μM TBH4, control areas of the bladder", "procedure": "For gene therapy experiments, myoblasts were transduced with the adenovirus containing the human inducible nitric oxide synthase (iNOS) gene at a multiplicity of infection of 50 (MOI=50) and were injected into the bladder and studied after 2 to 7 days.\nThe bladder was injected with a similar solution; however, the cell concentration ranged from 1.33×10^5 to 1×10^6 cells per 10 μl injection. Transduced myoblasts were prepared by incubating them for 24 hours with adenovirus vector containing the iNOS gene at a multiplicity of infection of 50 virus particles per cell. Immunohistochemical staining was performed on the cultured cells to ensure adequate infection and iNOS protein production.\nNO release in the bladder and penis was measured by placing the tip of a Naflon-coated porphyrinic microsensor (dia. 10 μM; detection limit, 5 nM; response time, 1 ms) directly on the bladder surface (mucosal and serosal) and on the corporal cavernosum, respectively."}, "[1]": {"test_system": "meniscal fibrochondrocytes", "assay": "Growth factors on meniscal fibrochondrocytes in vitro", "type": "cell-based", "conditions": "for expression of collagen and non-collagen proteins: meniscal fibrochondrocytes", "excerpt": "In vitro data detail the effects of numerous growth factors on fibroblast proliferation and collagen production."}, "myoblasts": {"test_system": "myoblasts", "assay": "Effect of growth factors on myoblast proliferation and fusion in vitro", "type": "cell-based", "conditions": "1, 10 and 100 ng/ml, 48 and 96 hours", "method": "Several growth factors, including acidic and basic fibroblast growth factors (aFGF and bFGF); epidermal growth factor (EGF); insulin-like growth factor-1 (IGF-1); platelet derived growth factor (PDGF); transforming growth factor β or α (TGF-β or TGF-α); and nerve growth factor (NGF) have been investigated for their ability to enhance the myogenic activity of muscle cells in vitro. Myoblasts were cultured with these trophic factors at different concentrations (1, 10 and 100 ng/ml), and the myoblast proliferation and differentiation were monitored at 48 and 96 hours post-incubation."}, "injured muscle": {"test_system": "injured muscle", "assay": "Muscle healing and twitch/tetanic strength in vivo after muscle contusion, laceration or strain", "set-up": "species or system mouse; key to twitch strength / tetanic strength: (+) improvement in strength vs. non-injected muscles; (−) no improvement in strength vs. non-injected muscles", "conditions": "for number of regenerating myofibers in vivo: direct injection into injured muscle (laceration, contusion, strain)", "method": "Briefly, the muscle laceration was performed by cutting the gastrocnemius muscle of a mouse with scissors at 60% of its length from its distal insertion, 75% of its width, and 50% of its thickness. The muscle contusion was made by dropping a 16 gram ball through an impactor from a height of 100 centimeters onto the mouse's gastrocnemius muscle, and the muscle strain was performed by elongating the muscle-tendon unit to a pre-determined strain point at the rate of 1 cm/min.\nIn order to evaluate muscle healing following injury, histological staining (hematoxylin-eosin) in conjunction with immunohistochemical techniques were employed to assess the expression of desmin and vimentin. Since desmin is a cytoskeletal protein uniformly expressed in regenerating myofibers, it has been used to specifically locate regenerating myofibers. Vimentin is expressed in mononucleated fibrocytes and macrophages and has been used herein as a marker for fibrosis. […]"}, "urethral smooth muscle": {"test_system": "urethral smooth muscle", "assay": "Intraurethral NO donors: urethral perfusion pressure and isovolumetric bladder pressure", "conditions": "rat, in vivo, iv", "method": "To first assess the role of NO donors on smooth muscle, urethral perfusion pressure and isovolumetric bladder pressure were measured with catheters inserted through the bladder dome in urethane anesthetized female S.D. rats (250-300 grams), (n=9). The catheter assembly was wedged in the bladder neck to block passage of fluid between the bladder and urethra without affecting the nerve supply to the organs. The external urethra was not catheterized. Responses were examined in the control state at an urethral saline infusion speed of 0.075 ml/min. After blocking striated urethral sphincter with intravenous alpha-bungarotoxin administration (100 mcg/kg), intraurethral drugs were administered."}}, "note": "“Also recorded” adds a separate entry of the source. Marks after values point to notes of the source that are not given here."}
{"compound": "O=P1(N(CCCl)CCCl)NCCCO1", "note": "(stereo not shown) [CYP, cyclophosphamide]", "values": [{"measurement": "number of micturitions during the 24 hours after CYP injection", "setting": "bladder", "result": "117±86"}, {"measurement": "total micturition volume", "setting": "bladder", "result": "20.5 ± 9.2", "unit": "mL"}, {"measurement": "voiding frequency after 7 days", "setting": "bladder", "result": "38±4"}]}
{"compound": "C[C@H](O)[C@H](O)[C@H]1CNc2nc(N)[nH]c(=O)c2N1", "note": "[TBH4, tetrahydrobiopterin]", "values": [{"measurement": "duration of NO release spike", "setting": "bladder wall", "result": "< 5", "unit": "s"}, {"measurement": "spike in NO release", "setting": "bladder wall", "result": "1 to 5", "unit": "nM"}]}
{"compound": "EGF: epidermal growth factor", "values": [{"measurement": "proliferation of the meniscal fibrochondrocytes", "setting": "[1]", "result": "improve"}, {"measurement": "expression of collagen and non-collagen proteins", "setting": "[1]", "result": "improve"}, {"measurement": "Fusion (differentiation into myotubules)", "setting": "myoblasts", "result": "Inhibit"}, {"measurement": "Proliferation", "setting": "myoblasts", "result": "Inhibit"}]}
{"compound": "IGF: insulin-like growth factor-1", "values": [{"measurement": "Fusion (differentiation into myotubules)", "setting": "myoblasts", "result": "Stimulate"}, {"measurement": "Proliferation", "setting": "myoblasts", "result": "Stimulate"}, {"measurement": "Fusion (differentiation into myotubules)", "setting": "myoblasts; listed as IGF-1", "result": "increase myoblast differentiation into myotubules"}, {"measurement": "Proliferation", "setting": "myoblasts; listed as IGF-1", "result": "significantly enhanced"}, {"measurement": "tetanic strength", "setting": "injured muscle; Muscle contusion", "result": "+/+"}, {"measurement": "twitch strength", "setting": "injured muscle; Muscle contusion", "result": "+/+"}, {"measurement": "tetanic strength", "setting": "injured muscle; Muscle laceration", "result": "+/+"}, {"measurement": "twitch strength", "setting": "injured muscle; Muscle laceration", "result": "+/+"}, {"measurement": "tetanic strength", "setting": "injured muscle; Muscle strain", "result": "+/+"}, {"measurement": "twitch strength", "setting": "injured muscle; Muscle strain", "result": "+/+"}, {"measurement": "number of regenerating myofibers in vivo", "setting": "injured muscle", "result": "increase the number of regenerating myofibers"}]}
{"compound": "NGF: nerve growth factor", "values": [{"measurement": "Fusion (differentiation into myotubules)", "setting": "myoblasts", "result": "increase myoblast differentiation into myotubules; also recorded: Stimulate"}, {"measurement": "Proliferation", "setting": "myoblasts", "result": "significantly enhanced; also recorded: Stimulate"}, {"measurement": "tetanic strength", "setting": "injured muscle; Muscle contusion", "result": "+/+*"}, {"measurement": "twitch strength", "setting": "injured muscle; Muscle contusion", "result": "+/+*"}, {"measurement": "tetanic strength", "setting": "injured muscle; Muscle laceration", "result": "−/−"}, {"measurement": "twitch strength", "setting": "injured muscle; Muscle laceration", "result": "−/−"}, {"measurement": "tetanic strength", "setting": "injured muscle; Muscle strain", "result": "−"}, {"measurement": "twitch strength", "setting": "injured muscle; Muscle strain", "result": "+"}, {"measurement": "number of regenerating myofibers in vivo", "setting": "injured muscle", "result": "increase the number of regenerating myofibers"}]}
{"compound": "PDGF", "values": [{"measurement": "proliferation of the meniscal fibrochondrocytes", "setting": "[1]", "result": "improve"}, {"measurement": "expression of collagen and non-collagen proteins", "setting": "[1]", "result": "improve"}, {"measurement": "Fusion (differentiation into myotubules)", "setting": "myoblasts", "result": "Inhibit"}, {"measurement": "Proliferation", "setting": "myoblasts", "result": "Inhibit"}]}
{"compound": "TGF-α: transforming growth factor α", "values": [{"measurement": "proliferation of the meniscal fibrochondrocytes", "setting": "[1]", "result": "improve"}, {"measurement": "expression of collagen and non-collagen proteins", "setting": "[1]", "result": "improve"}, {"measurement": "Fusion (differentiation into myotubules)", "setting": "myoblasts", "result": "Inhibit"}, {"measurement": "Proliferation", "setting": "myoblasts", "result": "Inhibit"}]}
{"compound": "TGF-β", "values": [{"measurement": "Fusion (differentiation into myotubules)", "setting": "myoblasts", "result": "Inhibit"}, {"measurement": "Proliferation", "setting": "myoblasts", "result": "Inhibit"}]}
{"compound": "a-FGF: acidic fibroblast growth factor", "values": [{"measurement": "Fusion (differentiation into myotubules)", "setting": "myoblasts", "result": "Stimulate"}, {"measurement": "Proliferation", "setting": "myoblasts", "result": "Inhibit"}, {"measurement": "Fusion (differentiation into myotubules)", "setting": "myoblasts; listed as aFGF", "result": "increase myoblast differentiation into myotubules"}]}
{"compound": "alpha-bungarotoxin", "values": [{"measurement": "high frequency oscillations of urethral pressure", "setting": "urethral smooth muscle", "result": "abolished"}]}
{"compound": "b-FGF: basic fibroblast growth factor", "values": [{"measurement": "proliferation of the meniscal fibrochondrocytes", "setting": "[1]", "result": "improve"}, {"measurement": "expression of collagen and non-collagen proteins", "setting": "[1]", "result": "improve"}, {"measurement": "Fusion (differentiation into myotubules)", "setting": "myoblasts", "result": "Stimulate"}, {"measurement": "Proliferation", "setting": "myoblasts", "result": "significantly enhanced; also recorded: Stimulate"}, {"measurement": "Fusion (differentiation into myotubules)", "setting": "myoblasts; listed as bFGF", "result": "increase myoblast differentiation into myotubules"}, {"measurement": "tetanic strength", "setting": "injured muscle; Muscle contusion", "result": "+/+"}, {"measurement": "twitch strength", "setting": "injured muscle; Muscle contusion", "result": "+/+"}, {"measurement": "tetanic strength", "setting": "injured muscle; Muscle laceration", "result": "+/+"}, {"measurement": "twitch strength", "setting": "injured muscle; Muscle laceration", "result": "+/+"}, {"measurement": "tetanic strength", "setting": "injured muscle; Muscle strain", "result": "+/+"}, {"measurement": "twitch strength", "setting": "injured muscle; Muscle strain", "result": "+/+"}, {"measurement": "number of regenerating myofibers in vivo", "setting": "injured muscle", "result": "increase the number of regenerating myofibers"}]}
